The subject of the assay is collagen type III alpha I chain (COL3A1) gene. In words: Gene expression test: COL3A1 by RT-PCR in normal human dermal fibroblasts. It counts as cell-based. Particulars: normal human dermal fibroblasts (NHDF), 48 hours incubation with actives in medium; normalized to ACTB; fold change relative to blank control; actives in wt % of medium. The method, then:
The normal human dermal fibroblasts (NHDF, Biocell, Xi′an, China, Cat: Fb20081902) were incubated in medium together with or without actives for 48 hours. After incubation, the total RNA for each […] was extracted using RNAex Pro reagent (Accurate Biotechnology, Cat: AG21102) according to manufacturer's protocol.
The extracted RNA was quantified using Nanodrop 2000 spectrometer (Thermo Fisher Scientific, Waltham, MA, US) and reverse transcribed to generate the template cDNA using the Evo M-MLV RT Premix for qPCR (Accurate Biotechnology, Cat: AG11706) according to manufacturer's protocol. Amplification of the gene encoding collagen type III alpha I chain (COL3A1) gene was performed with RT-PCR reagent (SYBR® Green Premix Pro Taq HS qPCR Kit, Accurate Biotechnology, Cat: AG11701) on the ABI Vii 7 Real-Time PCR Systems (Applied Biosystems, Thermo fisher scientific, Carlsbad, CA, USA). The beta-actin (ACTB) gene was selected as the housekeeping gene and all data on relative expression of the target genes was normalized to ACTB gene. The fold changes in expression were calculated relative to the blank control (medium having no active).

As to Lysine carboxymethyl cysteinate, the “Fold change of expression of COL3A1” value is 1.1.

For the origin of these results see US20260183223A1, “A PERSONAL CARE COMPOSITION” (Conopco, Inc., d/b/a UNILEVER, priority 2022, published 2026).
